Data from patent US20150105252A1, “SUBSTITUTED PYRAZOLES AS HERBICIDES” (E I DU PONT DE NEMOURS AND COMPANY, priority 2013, published 2015).

Columns and labels:
Conditions in all cases: scale 0 to 100
windgrass [1] = experiment: Test D postemergence; assay type: in vivo, Apera spica-venti
Description: (§1) Seeds of plant species selected from bluegrass (annual bluegrass, Poa annua), blackgrass (Alopecurus myosuroides), canarygrass (littleseed canarygrass, Phalaris minor), chickweed (common chickweed, Stellaria media), galium (catchweed bedstraw, Galium aparine), bromegrass, downy (downy bromegrass, Bromus tectorum), field poppy (Papaver rhoeas), field violet (Viola arvensis), foxtail, green (green foxtail, Setaria viridis), deadnettle (henbit deadnettle, Lamium amplexicaule), ryegrass, Italian (Italian ryegrass, Lolium multiflorum), kochia (Kochia scoparia), lambsquarters (Chenopodium album), oilseed rape (Brassica napus), pigweed (redroot pigweed, Amaranthus retroflexus), chamomile (scentless chamomile, Matricaria inodora), speedwell (bird's-eye speedwell, Veronica persica), barley, spring (spring barley, Hordeum vulgare), wheat, spring (spring wheat, Triticum aestivum), buckwheat, wild (wild buckwheat, Polygonum convolvulus), mustard, wild (wild mustard, Sinapis arvensis), oat, wild (wild oat, Avena fatua), radish, wild (wild radish, Raphanus raphanistrum), windgrass (Apera spica-venti), Russian thistle (Salsola kali), barley, winter (winter barley, Hordeum vulgare), and wheat, winter (winter wheat, Triticum aestivum) were planted into a silt loam soil and treated preemergence with test chemicals formulated in a non-phytotoxic solvent mixture which included a surfactant.
(§2) At the same time, these species were planted in pots containing Redi-Earth® planting medium (Scotts Company, 14111 Scottslawn Road, Marysville, Ohio 43041) comprising spaghnum peat moss, vermiculite, wetting agent and starter nutrients and treated with postemergence applications of the test chemicals formulated in the same manner. Plants ranged in height from 2 to 18 cm (1- to 4-leaf stage). Treated plants and controls were maintained in a controlled growth environment for 14 to 21 days after which time all species were compared to controls and visually evaluated. Plant response ratings, summarized in Table D, are based on a scale of 0 to 100 where 0 is no effect and 100 is complete control. A dash (-) response means no test result.

field violet = experiment: Test D postemergence; assay type: in vivo, Viola arvensis
Description: as §1, §2

canarygrass = experiment: Test D postemergence; assay type: in vivo, Phalaris minor
Description: as §1, §2

bluegrass = experiment: Test D preemergence; assay type: in vivo, Poa annua
Description: as §1, §2

field poppy = experiment: Test D preemergence; assay type: in vivo, Papaver rhoeas
Description: as §1, §2

windgrass [2] = experiment: Test D preemergence; assay type: in vivo, Apera spica-venti
Description: as §1, §2

bromegrass, downy = experiment: Test D postemergence; assay type: in vivo, Bromus tectorum
Description: as §1, §2

pigweed = experiment: Test D postemergence; assay type: in vivo, Amaranthus retroflexus
Description: as §1, §2

For CCc1cc(C(=O)NC(C)C)nn1Cc1ccnc(C(F)(F)F)c1 [Compound 103], the “Windgrass plant response rating” value (windgrass [1]; Postemergence, 31 g ai/ha) was 10, the “Windgrass plant response rating” value (windgrass [1]; Postemergence, 125 g ai/ha) was 25 and the “Windgrass plant response rating” value (windgrass [1]; Postemergence, 250 g ai/ha) was 35. The “Windgrass plant response rating” value (windgrass [1]; postemergence, 62 g ai/ha) was 20, the “Field Violet plant response rating” value (field violet; Postemergence, 31 g ai/ha) was 35 and the “Field Violet plant response rating” value (field violet; Postemergence, 125 g ai/ha) was 60. For the same compound, the “Field Violet plant response rating” value (field violet; Postemergence, 250 g ai/ha) was 60, the “Field Violet plant response rating” value (field violet; postemergence, 62 g ai/ha) was 55 and the “Canarygrass plant response rating” value (canarygrass; Postemergence, 31 g ai/ha) was 5. For the same compound, the “Canarygrass plant response rating” value (canarygrass; Postemergence, 125 g ai/ha) was 10, the “Canarygrass plant response rating” value (canarygrass; Postemergence, 250 g ai/ha) was 10 and the “Canarygrass plant response rating” value (canarygrass; postemergence, 62 g ai/ha) was 5. The “Plant response rating, Bluegrass” value (bluegrass; 31 g ai/ha) was 10, the “Plant response rating, Bluegrass” value (bluegrass; 62 g ai/ha) was 35 and the “Plant response rating, Bluegrass” value (bluegrass; 125 g ai/ha) was 65. For the same compound, the “Plant response rating, Bluegrass” value (bluegrass; 250 g ai/ha) was 85, the “Plant response rating, Field Poppy” value (field poppy; 31 g ai/ha) was 100 and the “Plant response rating, Field Poppy” value (field poppy; 62 g ai/ha) was 100. The “Plant response rating, Field Poppy” value (field poppy; 125 g ai/ha) was 100, the “Plant response rating, Field Poppy” value (field poppy; 250 g ai/ha) was 100 and the “Plant response rating, Windgrass” value (windgrass [2]; 31 g ai/ha) was 15. For the same compound, the “Plant response rating, Windgrass” value (windgrass [2]; 62 g ai/ha) was 80, the “Plant response rating, Windgrass” value (windgrass [2]; 125 g ai/ha) was 100 and the “Plant response rating, Windgrass” value (windgrass [2]; 250 g ai/ha) was 100. The “Bromegrass, Downy plant response rating” value (bromegrass, downy; Postemergence, 31 g ai/ha) was 5, the “Bromegrass, Downy plant response rating” value (bromegrass, downy; Postemergence, 125 g ai/ha) was 15 and the “Bromegrass, Downy plant response rating” value (bromegrass, downy; Postemergence, 250 g ai/ha) was 15. The “Bromegrass, Downy plant response rating” value (bromegrass, downy; postemergence, 62 g ai/ha) was 10, the “Pigweed plant response rating” value (pigweed; Postemergence, 31 g ai/ha) was 70 and the “Pigweed plant response rating” value (pigweed; Postemergence, 125 g ai/ha) was 65. The “Pigweed plant response rating” value (pigweed; Postemergence, 250 g ai/ha) was 70 and the “Pigweed plant response rating” value (pigweed; postemergence, 62 g ai/ha) was 60.

CCCc1cc(C(=O)NCC(F)(F)F)nn1Cc1cc(C(F)(F)F)nn1C [Compound 138] was tested, and the “Windgrass plant response rating” value (windgrass [1]; Postemergence, 31 g ai/ha) was 20, the “Windgrass plant response rating” value (windgrass [1]; Postemergence, 125 g ai/ha) was 35 and the “Windgrass plant response rating” value (windgrass [1]; Postemergence, 250 g ai/ha) was 60. For the same compound, the “Windgrass plant response rating” value (windgrass [1]; postemergence, 62 g ai/ha) was 20, the “Field Violet plant response rating” value (field violet; Postemergence, 31 g ai/ha) was 80 and the “Field Violet plant response rating” value (field violet; Postemergence, 125 g ai/ha) was 75. For the same compound, the “Field Violet plant response rating” value (field violet; Postemergence, 250 g ai/ha) was 95, the “Field Violet plant response rating” value (field violet; postemergence, 62 g ai/ha) was 80 and the “Canarygrass plant response rating” value (canarygrass; Postemergence, 31 g ai/ha) was 5. The “Canarygrass plant response rating” value (canarygrass; Postemergence, 125 g ai/ha) was 25, the “Canarygrass plant response rating” value (canarygrass; Postemergence, 250 g ai/ha) was 70 and the “Canarygrass plant response rating” value (canarygrass; postemergence, 62 g ai/ha) was 5. For the same compound, the “Plant response rating, Bluegrass” value (bluegrass; 31 g ai/ha) was 20, the “Plant response rating, Bluegrass” value (bluegrass; 62 g ai/ha) was 55 and the “Plant response rating, Bluegrass” value (bluegrass; 125 g ai/ha) was 90. The “Plant response rating, Bluegrass” value (bluegrass; 250 g ai/ha) was 100, the “Plant response rating, Field Poppy” value (field poppy; 62 g ai/ha) was 100 and the “Plant response rating, Field Poppy” value (field poppy; 125 g ai/ha) was 100. For the same compound, the “Plant response rating, Field Poppy” value (field poppy; 250 g ai/ha) was 100, the “Plant response rating, Windgrass” value (windgrass [2]; 62 g ai/ha) was 45 and the “Plant response rating, Windgrass” value (windgrass [2]; 125 g ai/ha) was 100. For the same compound, the “Plant response rating, Windgrass” value (windgrass [2]; 250 g ai/ha) was 100, the “Bromegrass, Downy plant response rating” value (bromegrass, downy; Postemergence, 31 g ai/ha) was 10 and the “Bromegrass, Downy plant response rating” value (bromegrass, downy; Postemergence, 125 g ai/ha) was 30. The “Bromegrass, Downy plant response rating” value (bromegrass, downy; Postemergence, 250 g ai/ha) was 20, the “Bromegrass, Downy plant response rating” value (bromegrass, downy; postemergence, 62 g ai/ha) was 10 and the “Pigweed plant response rating” value (pigweed; Postemergence, 31 g ai/ha) was 90. For the same compound, the “Pigweed plant response rating” value (pigweed; Postemergence, 125 g ai/ha) was 90, the “Pigweed plant response rating” value (pigweed; Postemergence, 250 g ai/ha) was 90 and the “Pigweed plant response rating” value (pigweed; postemergence, 62 g ai/ha) was 90.

With CCOc1cc(C(=O)NC2CC2)nn1Cc1ccnc(C(F)(F)F)c1 [Compound 189] the “Windgrass plant response rating” value (windgrass [1]; Postemergence, 31 g ai/ha) was 15, the “Windgrass plant response rating” value (windgrass [1]; Postemergence, 125 g ai/ha) was 20 and the “Windgrass plant response rating” value (windgrass [1]; Postemergence, 250 g ai/ha) was 35. For the same compound, the “Windgrass plant response rating” value (windgrass [1]; postemergence, 62 g ai/ha) was 15, the “Field Violet plant response rating” value (field violet; Postemergence, 31 g ai/ha) was 60 and the “Field Violet plant response rating” value (field violet; Postemergence, 125 g ai/ha) was 100. For the same compound, the “Field Violet plant response rating” value (field violet; Postemergence, 250 g ai/ha) was 100, the “Field Violet plant response rating” value (field violet; postemergence, 62 g ai/ha) was 60 and the “Canarygrass plant response rating” value (canarygrass; Postemergence, 31 g ai/ha) was 15. For the same compound, the “Canarygrass plant response rating” value (canarygrass; Postemergence, 125 g ai/ha) was 20, the “Canarygrass plant response rating” value (canarygrass; Postemergence, 250 g ai/ha) was 30 and the “Canarygrass plant response rating” value (canarygrass; postemergence, 62 g ai/ha) was 15. The “Plant response rating, Bluegrass” value (bluegrass; 31 g ai/ha) was 15, the “Plant response rating, Bluegrass” value (bluegrass; 62 g ai/ha) was 50 and the “Plant response rating, Bluegrass” value (bluegrass; 125 g ai/ha) was 70. The “Plant response rating, Bluegrass” value (bluegrass; 250 g ai/ha) was 85, the “Plant response rating, Field Poppy” value (field poppy; 62 g ai/ha) was 100 and the “Plant response rating, Field Poppy” value (field poppy; 125 g ai/ha) was 100. The “Plant response rating, Field Poppy” value (field poppy; 250 g ai/ha) was 100, the “Plant response rating, Windgrass” value (windgrass [2]; 62 g ai/ha) was 65 and the “Plant response rating, Windgrass” value (windgrass [2]; 125 g ai/ha) was 100. For the same compound, the “Plant response rating, Windgrass” value (windgrass [2]; 250 g ai/ha) was 100, the “Bromegrass, Downy plant response rating” value (bromegrass, downy; Postemergence, 31 g ai/ha) was 15 and the “Bromegrass, Downy plant response rating” value (bromegrass, downy; Postemergence, 125 g ai/ha) was 15. For the same compound, the “Bromegrass, Downy plant response rating” value (bromegrass, downy; Postemergence, 250 g ai/ha) was 20, the “Bromegrass, Downy plant response rating” value (bromegrass, downy; postemergence, 62 g ai/ha) was 15 and the “Pigweed plant response rating” value (pigweed; Postemergence, 31 g ai/ha) was 70. For the same compound, the “Pigweed plant response rating” value (pigweed; Postemergence, 125 g ai/ha) was 70, the “Pigweed plant response rating” value (pigweed; Postemergence, 250 g ai/ha) was 75 and the “Pigweed plant response rating” value (pigweed; postemergence, 62 g ai/ha) was 70.
